# Laboratory results: US11370774B2, “Substituted benzofuran, benzopyrrole, benzothiophene, and structurally related complement inhibitors” (BioCryst Pharmaceuticals, Inc., priority 2018, dated 2022)
# Molecular target: Factor D (Homo sapiens (Human), UniProt P00746)
# Experiment: Factor D esterolytic assay (Z-Lys-SBzl substrate, DTNB, 405 nm)
# Assay type: biochemical
# Conditions: Z-Lys-SBzl 1.29 mM, pH 7.5, 10% DMSO, tested a minimum of three times, read-out: Measured Ki (IC50) Value for Compounds: IC50
# Method in brief: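 Thioester hydrolysis (Z-Lys-SBzl, 1.29 mM) by human Factor D ([…]) detected through DTNB color at 405 nm over 600 sec, minus 690 nm background. Buffer: 100 mM HEPES pH 7.5, 500 mM NaCl, 10% DMSO; optional room-temperature preincubation before substrate. IC50 derived from percent rate inhibition; at least three runs.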
# Chain of Factor D (P00746 26-253): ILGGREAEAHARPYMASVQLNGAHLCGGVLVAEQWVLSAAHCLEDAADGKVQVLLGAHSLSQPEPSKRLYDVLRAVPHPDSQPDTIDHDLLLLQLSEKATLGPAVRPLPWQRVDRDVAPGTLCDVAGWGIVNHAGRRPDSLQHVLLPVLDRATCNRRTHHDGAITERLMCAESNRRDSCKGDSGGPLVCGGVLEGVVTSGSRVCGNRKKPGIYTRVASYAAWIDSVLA
row,Compound,IC50
1,"NCc1cccc(-c2cc(COc3ccccc3CC(=O)O)cc3cc(F)oc23)c1 [Compound 227e, 2-(2-((7-(3-(aminomethyl)phenyl)-2-fluorobenzofuran-5-yl)methoxy)phenyl)acetic acid]",< 1000 nM
2,"CCOC(=O)Cc1ccccc1NC(=O)c1nc(-c2cccc(CN)c2)c2cccn2n1 [Compound 5g, ethyl 2-(2-(4-(3-(aminomethyl)phenyl)pyrrolo[2,1-f][1,2,4]triazine-2-carboxamido)phenyl)acetate]",< 1000 nM
3,"NCc1cccc(-c2cc(CNc3ccccc3CC(=O)O)cc3ccoc23)c1F [Compound 152d, lithium 2-(2-(((7-(3-(aminomethyl)-2-fluorophenyl)benzofuran-5-yl)methyl)amino)phenyl)acetate]",< 1000 nM
4,"Cc1ccc(CC(=O)O)c(OCc2cc(-c3ccnc(CN)c3F)c3ccn(C(C)C)c3c2)c1 [Compound 355c, 2-(2-((4-(2-(aminomethyl)-3-fluoropyridin-4-yl)-1-isopropyl-1H-indol-6-yl)methoxy)-4-methylphenyl)acetic acid]",< 1000 nM
5,"Cn1ncc2c(-c3ccnc(CN)c3F)cc(COc3ccccc3CC(=O)O)cc21 [Compound 151c, 2-(2-((4-(2-(aminomethyl)-3-fluoropyridin-4-yl)-1-methyl-1H-indazol-6-yl)methoxy)phenyl)acetic acid]",< 1000 nM
6,"NCc1cc(-c2cc(COc3ccccc3CC(=O)O)cc3sc(Cl)cc23)ccn1 [Compound 336c, 2-(2-((4-(2-(aminomethyl)pyridin-4-yl)-2-chlorobenzo[b]thiophen-6-yl)methoxy)phenyl)acetic acid]",< 1000 nM
7,"COc1ccc(CC(=O)O)c(OCc2cc(-c3ccnc(CN)c3F)c3occc3c2F)c1 [Compound 385d, 2-(2-((7-(2-(aminomethyl)-3-fluoropyridin-4-yl)-4-fluorobenzofuran-5-yl)methoxy)-4-methoxyphenyl)acetic acid]",< 1000 nM
8,"NCc1nccc(-c2cc(COc3ccccc3CC(=O)O)c(F)c3ccoc23)c1F [Compound 171c, 2-(2-((7-(2-(aminomethyl)-3-fluoropyridin-4-yl)-4-fluorobenzofuran-5-yl)methoxy)phenyl)acetic acid]",< 1000 nM
9,"NCc1cccc(-c2cc(C(=O)Nc3ccccc3CC(=O)O)nc3ccoc23)c1 [Compound 255c, 2-(2-(7-(3-(aminomethyl)phenyl)furo[3,2-b]pyridine-5-carboxamido)phenyl)acetic acid]",1000 to 10000 nM
10,"NCc1cccc(-c2cc(COc3ccccc3CC(=O)O)cc3[nH]ccc23)c1F [Compound 58b, 2-(2-((4-(3-(aminomethyl)-2-fluorophenyl)-1H-indol-6-yl)methoxy)phenyl)acetic acid]",< 1000 nM
11,"NCc1cc(-c2cc(COc3cc(F)ccc3CC(=O)O)cc3c(C(F)(F)F)coc23)ccn1 [Compound 491b, 2-(2-((7-(2-(aminomethyl)pyridin-4-yl)-3-(trifluoromethyl)benzofuran-5-yl)methoxy)-4-fluorophenyl)acetic acid]",< 1000 nM
12,"NCc1ccc(-c2cc(COc3ccccc3CC(=O)O)cc3ccoc23)cc1 [Compound 193c, 2-(2-((7-(4-(aminomethyl)phenyl)benzofuran-5-yl)methoxy)phenyl)acetic acid]",1000 to 10000 nM
13,"Cc1cc(-c2ccc(CC(=O)O)c(OCc3cc(-c4cccc(CN)c4)c4occc4c3)c2)ccn1 [Compound 320c, 2-(2-((7-(3-(aminomethyl)phenyl)benzofuran-5-yl)methoxy)-4-(2-methylpyridin-4-yl)phenyl)acetic acid]",< 1000 nM
14,"COc1cccc(CC(=O)O)c1OCc1cc(-c2ccnc(CN)c2F)c2occc2c1 [Compound 527b, 2-(2-((7-(2-(aminomethyl)-3-fluoropyridin-4-yl)benzofuran-5-yl)methoxy)-3-methoxyphenyl)acetic acid]",< 1000 nM
15,"NCc1cccc(-c2cc(NC(=O)N3CCC[C@H]3C(=O)NCc3cccc(Cl)c3F)cc3ccoc23)c1 [Compound 418c, (S)—N1-(7-(3-(aminomethyl)phenyl)benzofuran-5-yl)-N2-(3-chloro-2-fluorobenzyl)pyrrolidine-1,2-dicarboxamide]",< 1000 nM
16,"NCc1cccc(-c2cc(C(=O)Nc3ccccc3CC(=O)O)c(F)c3ccoc23)c1 [Compound 241c, 2-(2-(7-(3-(aminomethyl)phenyl)-4-fluorobenzofuran-5-carboxamido)phenyl)acetic acid]",< 1000 nM
17,"NCc1cccc(-c2cc(COc3c(F)cccc3CC(=O)O)cc3ccoc23)c1 [Compound 264c, 2-(2-((7-(3-(aminomethyl)phenyl)benzofuran-5-yl)methoxy)-3-fluorophenyl)acetic acid]",< 1000 nM
18,"NCc1cccc(-c2cc(COc3cc(-c4cccnc4)ccc3CC(=O)O)cc3ccoc23)c1 [Compound 319c, 2-(2-((7-(3-(aminomethyl)phenyl)benzofuran-5-yl)methoxy)-4-(pyridin-3-yl)phenyl)acetic acid]",< 1000 nM
19,"NCc1cccc(-c2cc(COc3ccccc3CC(=O)O)cc3c2CCC3)c1 [Compound 177f, 2-(2-((7-(3-(aminomethyl)phenyl)-2,3-dihydro-1H-inden-5-yl)methoxy)phenyl)acetic acid]",< 1000 nM
20,"NCc1nccc(-c2cc(COc3ccccc3CC(=O)O)cc3sc(Cl)cc23)c1F [Compound 338c, 2-(2-((4-(2-(aminomethyl)-3-fluoropyridin-4-yl)-2-chlorobenzo[b]thiophen-6-yl)methoxy)phenyl)acetic acid]",< 1000 nM
21,"COCc1cc2cc(COc3cc(C)ccc3CC(=O)O)cc(-c3cccc(CN)c3F)c2o1 [Compound 444c, 2-(2-((7-(3-(aminomethyl)-2-fluorophenyl)-2-(methoxymethyl)benzofuran-5-yl)methoxy)-4-methylphenyl)acetic acid]",< 1000 nM
22,"Nc1ccc(-c2cc(COc3ccccc3CC(=O)O)cc3ccoc23)cc1 [Compound 183c, 2-(2-((7-(4-aminophenyl)benzofuran-5-yl)methoxy)phenyl)acetic acid]",> 10000 nM
23,"N[C@H](CO)c1cccc(-c2cc(COc3ccccc3CC(=O)O)cc3ccoc23)c1F [Compound 67c, (S)-2-(2-((7-(3-(1-amino-2-hydroxyethyl)-2-fluorophenyl)benzofuran-5-yl)methoxy)phenyl)acetic acid]",< 1000 nM
24,"COc1ccc(CC(=O)O)c(OCc2cc(-c3ccnc(CN)c3F)c3oc(F)cc3c2)c1 [Compound 483c, 2-(2-((7-(2-(aminomethyl)-3-fluoropyridin-4-yl)-2-fluorobenzofuran-5-yl)methoxy)-4-methoxyphenyl)acetic acid]",< 1000 nM
25,"NCc1cc(-c2cc(COc3ccc(F)cc3CC(=O)O)c(F)c3ccoc23)ccn1 [Compound 389c, 2-(2-((7-(2-(aminomethyl)pyridin-4-yl)-4-fluorobenzofuran-5-yl)methoxy)-5-fluorophenyl)acetic acid]",< 1000 nM
26,"COc1c(C(=O)Nc2ccccc2CC(=O)O)cc(-c2ccnc(CN)c2)c2occc12 [Compound 251c, 2-(2-(7-(2-(aminomethyl)pyridin-4-yl)-4-methoxybenzofuran-5-carboxamido)phenyl)acetic acid]",1000 to 10000 nM
27,"COc1ccc(OCc2cc(-c3cccc(CN)c3)c3occc3c2)c(CC(=O)O)c1 [Compound 350e, 2-(2-((7-(3-(aminomethyl)phenyl)benzofuran-5-yl)methoxy)-5-methoxyphenyl)acetic acid]",< 1000 nM
